Earlier results in patent US20250177407A1 (Closed Loop Medicine Ltd., priority 2023, published 2025).
Where two headings read alike, the source gives them in different places. Marks after values point to notes of the source that are not given here.

How the values were obtained:
factor Xa activity = factor Xa activity (Homo sapiens, UniProt P00742)
[1] = not given; remark: listed apart in the source
[2] = not given; remark: listed apart in the source
[3] = not given; remark: listed apart in the source
[4] = not given; remark: listed apart in the source
[5] = system: patients with nonvalvular AF; conditions: ROCKET-AF
patients with AF = conditions: management of AF
[6] = clearance adjustment, comedication

Sequence of factor Xa activity (P00742 235-488 limits assumed): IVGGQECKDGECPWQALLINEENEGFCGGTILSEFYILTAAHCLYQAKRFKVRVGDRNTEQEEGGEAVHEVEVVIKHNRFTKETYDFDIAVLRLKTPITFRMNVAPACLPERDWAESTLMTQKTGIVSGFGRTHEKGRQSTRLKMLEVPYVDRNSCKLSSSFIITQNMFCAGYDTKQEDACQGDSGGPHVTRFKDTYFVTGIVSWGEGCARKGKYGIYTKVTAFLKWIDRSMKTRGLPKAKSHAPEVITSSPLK
Sequence of factor Xa activity (P00742 41-179 partner limits assumed): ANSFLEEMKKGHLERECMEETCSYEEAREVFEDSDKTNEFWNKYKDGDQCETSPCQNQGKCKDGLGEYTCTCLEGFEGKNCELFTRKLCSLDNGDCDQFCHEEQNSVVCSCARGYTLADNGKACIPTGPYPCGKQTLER

O=C(NC[C@H]1CN(c2ccc(N3CCOCC3=O)cc2)C(=O)O1)c1ccc(Cl)s1 [rivaroxaban]
bioavailability (20 mg tablets, fasting, healthy subjects): approximately 66%
variability in drug plasma levels for a given dose (between patients): 6- to 10 fold
half-life (elderly): 11 to 13 h
half life (elderly patients): ~12 h
half-life (healthy volunteers): 5 to 9 h
fraction of absorbed drug eliminated unchanged via the kidney (human, in vivo): 30%
fraction of absorbed drug metabolised by hepatic CYP 3A4/5 and CYP-independent enzymes (human, in vivo): Approximately 60%
time to peak levels (once daily immediate release with food): 1 to 2 h
bioavailability (oral 2.5 and 10 mg tablets, not affected by food): 80-100%
time to peak concentration (oral administration): 2 to 4 h
half-life (population not specified): 5 to 9 h
half life (young patients): 5 to 9 h
slope of prothrombin time versus plasma concentration (prothrombin time; Esmueti et al. (2022), Fisherbrand reagent): 0.018 s/(μg/ L)
Hill (prothrombin time; Zhao et al. (2022)): 1.37 ^b
slope of prothrombin time versus plasma concentration (prothrombin time; Zhao et al. (2022)): 0.0018 ^b s/(μg/L)
Emax (factor Xa activity; Girgis et al. (2014)): 107%
Emax (factor Xa activity; Mueck et al. (2007)): 0.86 U/ml
Emax (factor Xa activity; Mueck et al. (2008b), KRS): 0.837 U/ml
Emax (factor Xa activity; Mueck et al. (2008b), day 1, HRS): 0.881 U/ml
Emax (factor Xa activity; Mueck et al. (2008b), steady state, HRS): 0.942 U/ml
FXa0 (second entry of the cell) (factor Xa activity; Tanigawa et al. (2013)): 0.928 U/mL
Hill (factor Xa activity; Tanigawa et al. (2013)): 1.16
θCL/F, P-gp inhibitor ([1]; clearance adjustment, P-gp inhibitor comedication): 0.996 Proportion
θCL/F, VTE ≤72 hr ([1]; clearance adjustment, VTE prevention after hip or knee surgery, less than 72 hours): 1.04 Proportion
θCL/F, VTE >72 hr ([1]; clearance adjustment, VTE prevention after hip or knee surgery, more than 72 hours): 1.29 Proportion
θCL/F, ACS ([1]; clearance adjustment, acute coronary syndrome): 1.14 Proportion
θCL/F, CYP3A4 inducer [1, 6]: 1.3 Proportion
θCL/F, Medium CYP3A4 inhibitor [1, 6]: 0.863 Proportion
θCL/F, Strong CYP3A4 inhibitor [1, 6]: 0.978 Proportion
θCL/F, Weak CYP3A4 inhibitor [1, 6]: 0.939 Proportion
θCL/F, AF ([1]; clearance adjustment, stroke prevention in AF): 0.849 Proportion
θV/F, Age ([1]; covariate effect of age on V/F): −0.189 Power
θCL/F, Weight ([1]; covariate effect of body weight on CL/F): −0.278 Power
θV/F, Weight ([1]; covariate effect of body weight on V/F): 0.216 Power
θCL/F, CRCL ([1]; covariate effect of creatinine clearance on CL/F): 0.406 Power
θV/F, Sex ([1]; covariate effect of sex on V/F): 0.889 Proportion
ω^2CL/F ([1]; inter-individual variability): 0.167 Variance
ω^2CL/F, V/F ([1]; inter-individual variability): 0.0674 Covariance
ω^2Ka ([1]; inter-individual variability): 0.628 Variance
ω^2V/F ([1]; inter-individual variability): 0.0391 Variance
CL/F, apparent clearance ([1]; population PK estimate): 6.58 L/h
Ka, first-order absorption rate constant ([1]; population PK estimate): 0.821 h⁻¹
V/F, apparent volume of distribution ([1]; population PK estimate): 62.5 L
D50 ([1]; relative bioavailability model): 14.4 mg
σ^2prop ([1]; residual variability): 0.203 Variance
increase in drug level exposure (AUC) ([2]; CrCl = 30, relative to median CrCl of 69 for the RE-LY study data): 1.8 fold
increase in drug level exposure (AUC) ([2]; CrCl = 50, relative to median CrCl of 69 for the RE-LY study data): 1.3 fold
increase in drug level exposure (AUC) ([2]; South Asians compared to other ethnicities): ~26% increase in South Asians compared to
increase in drug level exposure (AUC) per year older ([2]; age, compared to 72 yr): 0.41% increase per year older compared to 72 yr
decrease in drug level exposure (AUC) ([2]; comedication PPIs): ~13% decrease
increase in drug level exposure (AUC) ([2]; comedication amiodarone): 12% increase
increase in drug level exposure (AUC) ([2]; comedication verapamil): 23% increase
increase in drug level exposure (AUC) ([2]; females compared to men): ~9% increase in females compared to men
decrease in Vd ([2]; haemoglobin above 14.3 g · dL^−1): by 4%/1 g · dL^−1 above 14.3 g · dL^−1
effect of low weight on Cmax ([2]; in vivo): increase Cmax
increase in drug level exposure (AUC) ([2]; patients with heart failure): ~7% increase in patients with HF
increase in distribution volume (Vd) per kg above 80 kg ([2]; weight): in distribution volume (Vd) by 0.8%
interethnic differences in PK and PD characteristics ([3]; Caucasian, African-American, Hispanic, Japanese, Chinese patients (EMA)): no clinically relevant interethnic differences
higher exposure compared to other ethnicities ([3]; healthy Japanese subjects, on average (FDA)): 20-40%
increase in AUC compared with healthy subjects ([3]; mild (Child-Pugh A) hepatic impairment): 15%
increase in exposure ([3]; mild renal impairment (CrCl 50-79 mL/min)): 44%
increase in the effect-time curve AUC ([3]; moderate hepatic impairment): 159%
prothrombin time ([3]; moderate hepatic impairment): significant prolongation
increase in exposure ([3]; moderate renal impairment (CrCl 30-49 mL/min)): 52%
increase in exposure ([3]; severe renal impairment (CrCl<30 mL/min)): 64%
plasma protein binding [4]: 92-95%
rate of fatal stroke [5]: 1.7 % per year
risk of intracranial bleeds [5]: 0.5%

CC(=O)CC(c1ccccc1)c1c(O)c2ccccc2oc1=O (stereo not shown) [warfarin]
reduction of stroke (patients with AF): about 60%
rate of fatal stroke [5]: 2.2 % per year
